Assay [1] relates to NDRG1 phosphorylation in ZR-75-1 cells. Description: Immunoblot of NDRG1 (Thr346) phosphorylation in breast cancer cells. The assay is classed as cell-based, human. The note with it: for phosphorylation of PRAS40 (Thr246) and NDRG1 (Thr346): 1 μM, 1 h, ZR-75-1, CAMA-1 (and T47D for PI3K inhibitors); for concentration reducing NDRG1 phosphorylation to basal levels: ZR-75-1 pre-treated with 1 μM MK-2206 for 5 days, hVps34 inhibitor 1 h. The protocol:
Cell lysates were subjected to immunoblot analysis with the indicated antibodies. • ZR‐75‐1 cells cultured in serum in the absence of Akt inhibitor were treated for 1 h with the indicated concentrations of VPS34‐IN1. […] One hour prior to lysis, the cells were incubated in the presence or absence of 1 μM VPS34‐IN1. SGK3 was immunoprecipitated from lysates and subjected to in vitro kinase assay by measuring phosphorylation of the Crosstide substrate peptide in the presence of 0.1 mM [γ‐^32P]ATP in a 30 min 30°C reaction (upper panel). Kinase reactions are presented as means ± SD for triplicate reaction. Immunoprecipitates (IP) and lysates were analysed by immunoblot with the indicated antibodies. […] SGK3 was immunoprecipitated from the lysates and subjected to in vitro kinase assay as in (C). Kinase reactions are presented as means ± SD for triplicate reaction. Immunoprecipitates (IP) and lysates (lower panel) were also subjected to immunoblot analysis with the indicated antibodies. • ZR‐75‐1 cells were cultured in the absence or presence of 1 μM MK‐2206 for 5 days. Cells were then treated in the absence or presence of 0.1 μM AZD8055 or 0.1 μM rapamycin for 1 h. SGK3 was immunoprecipitated and subjected to in vitro kinase assay as in (C). Kinase reactions are presented as means ± SD for triplicate reaction. The immunoprecipitates (IP) and lysates were analysed with the indicated antibodies.
One hour prior to lysis, the cells were incubated in the presence of absence of 0.3 μM SAR405. SGK3 was immunoprecipitated from lysates and subjected to in vitro kinase assay by measuring phosphorylation of the Crosstide substrate peptide in the presence of 0.1 mM [γ‐^32P]ATP in a 30 min 30°C reaction (upper panel). Kinase reactions are presented as means ± SD for triplicate reaction. Immunoprecipitates (IP) and lysates were also analysed by immunoblot with the indicated antibodies.
(§1) The result for each kinase is presented as a mean kinase activity of the reaction taken in triplicate relative to a control reaction where the inhibitors were omitted. […] SGK3 was immunoprecipitated from cell lysates and subjected to in vitro kinase assay by measuring phosphorylation of the Crosstide substrate peptide in the presence of 0.1 mM [γ‐^32P]ATP in a 30 min 30°C reaction (upper panel). Kinase reactions are presented as means ± SD for triplicate reaction.
(§2) HEK293 cells were purchased from the American Tissue Culture Collection (ATCC). Cells were cultured in RPMI or DMEM media supplemented with 10% (v/v) foetal bovine serum, 2 mM L‐glutamine, 100 U/ml penicillin and 0.1 mg/ml streptomycin. Inhibitor treatments were carried out as described in figure legends. During 5 days inhibitor treatments, the media was changed after 72‐h intervals. The cells were lysed in buffer containing 50 mM Tris–HCl (pH 7.5), 150 mM NaCl, 1 mM EDTA, 1 mM EGTA, 1 mM sodium orthovanadate, 10 mM sodium glycerophosphate, 10 mM sodium pyrophosphate, 0.27 M sucrose, 0.1% (v/v) 2‐mercaptoethanol, 1 mM benzamidine and 0.1 mM PMSF. Lysates were clarified by centrifugation at 16,000 g for 10 min at 4°C. Protein concentration was calculated using Bradford assay (Thermo Scientific). Immunoblotting and immunoprecipitation were performed using standard procedures. The signal was developed using ECL Western Blotting Detection Kit (Amersham) on Amersham Hyperfilm ECL film (Amersham).
On the technique in general: A western blot detects proteins with antibodies after separation by electrophoresis.

The test system of the next assay is ZR-75-1 cells. Description: Immunoblot of Akt/mTORC1 pathway markers (Akt, PRAS40, TSC2, S6K1, Rictor, S6, 4EBP1) in ZR-75-1 cells. The assay is classed as cell-based, human. The note with it: for Akt phosphorylation and PRAS40 phosphorylation: ZR-75-1 in serum, hVps34 inhibitor 1 h. The protocol:
Kinase reactions are presented as means ± SD for triplicate reaction. Immunoprecipitates (IP) were also analysed by immunoblot with the indicated antibodies. • SGK3 was knocked down in ZR‐75‐1 cells by using shRNA probe B and compared to a control shRNA probe, named sh scramble. After infection, the cells were kept for 2 days in puromycin selection media and then seeded for the experiment. The cells were treated with 1 μM MK‐2206 for 1 h or 5 days. The cell lysates were subjected to immunoblot analysis with the indicated antibodies.
The cell lysates were analysed by immunoblot using the antibody against phosphorylated Akt phosphorylation consensus motif (RxRxxpS/pT).
as §2

For assay [2], the target named is T1, SGK3 (Homo sapiens, UniProt Q96BR1).
T1 sequence (Q96BR1 1-496): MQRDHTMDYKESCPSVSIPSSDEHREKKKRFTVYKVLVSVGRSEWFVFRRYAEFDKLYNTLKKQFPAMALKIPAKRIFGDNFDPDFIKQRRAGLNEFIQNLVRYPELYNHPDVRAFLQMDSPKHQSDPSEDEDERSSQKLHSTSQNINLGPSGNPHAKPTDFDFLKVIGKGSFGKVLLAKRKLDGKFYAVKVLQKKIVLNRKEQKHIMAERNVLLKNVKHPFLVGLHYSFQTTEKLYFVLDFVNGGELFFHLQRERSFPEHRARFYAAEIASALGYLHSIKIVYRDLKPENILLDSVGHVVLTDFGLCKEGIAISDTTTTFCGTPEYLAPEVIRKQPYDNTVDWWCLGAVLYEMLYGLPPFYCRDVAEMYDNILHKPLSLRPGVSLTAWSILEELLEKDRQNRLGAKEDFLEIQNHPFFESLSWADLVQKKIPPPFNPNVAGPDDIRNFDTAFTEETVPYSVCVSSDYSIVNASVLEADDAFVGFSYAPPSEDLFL
Description: Immunoprecipitated endogenous SGK3 kinase activity (Crosstide) and SGK3 phosphorylation from treated cells. The note with it: for elevated SGK3 kinase activity, T-loop and hydrophobic motif phosphorylation induced by prolonged Class I PI3K or Akt inhibitor treatment: ZR-75-1, 5 days PI3K/Akt inhibitor, then 1 μM VPS34-IN1 or 0.3 μM SAR405 for 1 h; for basal SGK3 activity and phosphorylation: ZR-75-1 in serum, 1 μM VPS34-IN1 or 0.3 μM SAR405; for basal SGK3 activity and phosphorylation / SGK3 hydrophobic motif and T-loop phosphorylation and SGK3 kinase activity: 1 h; for SGK3 hydrophobic motif and T-loop phosphorylation and SGK3 kinase activity: ZR-75-1, 0.1 μM, with or without 5 days 1 μM MK-2206. The assay is classed as cell-based. On the set-up: we immunoprecipitated endogenous SGK3 and assessed protein kinase activity; endogenous in cells; host or cells: ZR-75-1. The protocol: Briefly, SGK3, Akt and S6K1 were immunoprecipitated from 1 mg ZR‐75‐1 cell lysate. Immunoprecipitates were washed in sequence with lysis buffer containing high salt concentration (500 mM NaCl), lysis buffer and Buffer A (50 mM Tris pH 7.5, 0.1 mM EGTA). Kinase activity was assessed by measuring [γ‐^32P]ATP incorporation into Crosstide substrate peptide [[…]]. The reactions were carried in 40 μl total volume containing 0.1 mM [γ‐^32P]ATP (400–1,000 cpm/pmol), 10 mM magnesium acetate and 30 μM Crosstide peptide. Reactions were terminated by adding 10 μl 0.1 M EDTA and spotting 40 μl of the resulting reaction mix on P81 paper, which were immediately immersed into 50 mM orthophosphoric acid. Papers were washed at least five times in 50 mM orthophosphoric acid, rinsed in acetone and air‐dried. Radioactivity was quantified by Cerenkov counting. One unit of enzyme activity was defined as amount of enzyme that catalyses incorporation of 1 nmol of [γ‐^32P]ATP into the substrate over 1 min.

The target of the next assay is S6K1 (Homo sapiens, UniProt P23443). Description: IC50 on recombinant S6K1 (p70S6K). The assay is classed as biochemical. The note with it: Fig 5B / Appendix Fig S1B, recombinant kinase, unit inferred. The protocol: as §1
(§3) Appendix Figure S1. […] (A) Chemical struc tures of
(§4) Sano/f_i-14g, -14i and -14n compounds. (B) IC50 values of inhibitors on indicated recombinant k inases. […]

In assay [3] the target is T1, SGK3. Description: IC50 on recombinant SGK3. The assay is classed as biochemical. The note with it: Fig 5B / Appendix Fig S1B, recombinant kinase, unit inferred. The protocol: as §1, §3, §4
A further assay concerns the target MLK1 (Homo sapiens, UniProt P80192). Description: IC50 on recombinant MLK1. The assay is classed as biochemical. The note with it: Fig 5B / Appendix Fig S1B, recombinant kinase, unit inferred. The method, then:
as §1, §3, §4

In another assay the target is PKBa (Homo sapiens, UniProt P31749). Description: IC50 on recombinant PKBa (Akt1). The assay is classed as biochemical. The conditions noted are these: Fig 5B / Appendix Fig S1B, recombinant kinase, unit inferred. The protocol:
as §1, §3, §4

Another assay addresses MLK3 (Homo sapiens, UniProt Q16584). Description: IC50 on recombinant MLK3. In kind it is biochemical. The conditions noted are these: Fig 5B / Appendix Fig S1B, recombinant kinase, unit inferred. The protocol:
as §1, §3, §4

Assay [4] concerns breast cancer cells that express high levels of SGK1. Description: NDRG1 phosphorylation in breast cancer cells that express high levels of SGK1. In kind it is cell-based. The note with it: data not shown.

The structures appear in SMILES notation.

MLK1, sequence (P80192 whole entry, species assumed): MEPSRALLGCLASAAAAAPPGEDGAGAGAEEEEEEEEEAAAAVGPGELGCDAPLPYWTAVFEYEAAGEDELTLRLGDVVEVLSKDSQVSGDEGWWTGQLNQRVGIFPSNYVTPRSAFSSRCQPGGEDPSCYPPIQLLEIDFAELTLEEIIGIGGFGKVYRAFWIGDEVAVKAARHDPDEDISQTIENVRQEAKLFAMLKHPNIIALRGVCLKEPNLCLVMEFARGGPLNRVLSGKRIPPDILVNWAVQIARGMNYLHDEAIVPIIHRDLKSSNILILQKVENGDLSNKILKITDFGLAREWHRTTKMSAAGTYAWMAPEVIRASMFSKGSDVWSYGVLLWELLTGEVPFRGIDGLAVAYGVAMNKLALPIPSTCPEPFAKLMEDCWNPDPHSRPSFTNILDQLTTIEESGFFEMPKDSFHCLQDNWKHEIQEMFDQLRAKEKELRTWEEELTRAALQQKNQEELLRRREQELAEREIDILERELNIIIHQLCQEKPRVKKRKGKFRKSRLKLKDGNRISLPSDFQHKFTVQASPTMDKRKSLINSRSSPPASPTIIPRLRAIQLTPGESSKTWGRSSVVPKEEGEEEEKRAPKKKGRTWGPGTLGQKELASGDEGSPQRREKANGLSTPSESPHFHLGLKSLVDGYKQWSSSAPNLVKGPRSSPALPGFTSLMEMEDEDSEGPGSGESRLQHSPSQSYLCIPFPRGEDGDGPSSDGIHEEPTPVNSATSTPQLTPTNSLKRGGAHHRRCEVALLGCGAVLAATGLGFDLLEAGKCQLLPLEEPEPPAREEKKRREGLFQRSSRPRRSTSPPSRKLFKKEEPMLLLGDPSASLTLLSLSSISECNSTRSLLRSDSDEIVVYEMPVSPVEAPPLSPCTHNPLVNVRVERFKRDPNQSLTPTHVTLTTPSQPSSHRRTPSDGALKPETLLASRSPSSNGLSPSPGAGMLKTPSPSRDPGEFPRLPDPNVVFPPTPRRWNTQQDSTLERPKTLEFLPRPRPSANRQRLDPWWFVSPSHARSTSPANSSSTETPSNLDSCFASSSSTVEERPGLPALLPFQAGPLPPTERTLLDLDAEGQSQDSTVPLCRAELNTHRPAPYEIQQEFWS
MLK3, sequence (Q16584 whole entry, species assumed): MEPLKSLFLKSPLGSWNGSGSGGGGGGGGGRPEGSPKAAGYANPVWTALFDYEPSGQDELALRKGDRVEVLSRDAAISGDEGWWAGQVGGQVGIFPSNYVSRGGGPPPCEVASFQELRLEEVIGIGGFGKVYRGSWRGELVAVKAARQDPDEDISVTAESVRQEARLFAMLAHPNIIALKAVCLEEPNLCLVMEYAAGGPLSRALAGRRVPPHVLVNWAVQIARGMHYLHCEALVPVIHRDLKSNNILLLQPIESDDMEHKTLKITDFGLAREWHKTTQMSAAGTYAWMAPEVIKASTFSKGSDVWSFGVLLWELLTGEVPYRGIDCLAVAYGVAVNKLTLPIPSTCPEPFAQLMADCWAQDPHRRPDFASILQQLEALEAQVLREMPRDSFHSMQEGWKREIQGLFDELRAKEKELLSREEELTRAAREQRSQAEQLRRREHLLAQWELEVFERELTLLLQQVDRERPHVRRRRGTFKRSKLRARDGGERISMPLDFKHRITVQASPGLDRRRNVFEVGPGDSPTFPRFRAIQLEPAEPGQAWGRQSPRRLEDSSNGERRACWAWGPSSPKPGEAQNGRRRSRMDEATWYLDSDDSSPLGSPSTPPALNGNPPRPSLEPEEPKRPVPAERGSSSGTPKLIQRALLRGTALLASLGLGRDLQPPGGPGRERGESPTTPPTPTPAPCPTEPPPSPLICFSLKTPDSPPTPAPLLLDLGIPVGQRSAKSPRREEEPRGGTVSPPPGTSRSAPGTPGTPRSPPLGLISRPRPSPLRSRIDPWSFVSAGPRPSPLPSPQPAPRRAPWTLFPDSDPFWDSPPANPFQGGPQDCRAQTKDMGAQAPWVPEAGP
PKBa, sequence (P31749 whole entry): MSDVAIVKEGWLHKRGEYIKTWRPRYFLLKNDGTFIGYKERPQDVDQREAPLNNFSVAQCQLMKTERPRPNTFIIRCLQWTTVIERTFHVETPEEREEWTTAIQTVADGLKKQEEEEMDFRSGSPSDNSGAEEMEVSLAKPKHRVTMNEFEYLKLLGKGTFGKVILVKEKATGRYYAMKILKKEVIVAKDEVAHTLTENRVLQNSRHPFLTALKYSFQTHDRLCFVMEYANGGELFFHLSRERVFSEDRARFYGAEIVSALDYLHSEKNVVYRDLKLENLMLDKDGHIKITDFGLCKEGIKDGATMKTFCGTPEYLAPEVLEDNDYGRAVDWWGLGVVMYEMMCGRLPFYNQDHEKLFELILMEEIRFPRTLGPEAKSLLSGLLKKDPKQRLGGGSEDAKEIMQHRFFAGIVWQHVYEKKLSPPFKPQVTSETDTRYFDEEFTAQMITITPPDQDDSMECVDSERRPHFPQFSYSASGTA
S6K1, sequence (P23443 whole entry): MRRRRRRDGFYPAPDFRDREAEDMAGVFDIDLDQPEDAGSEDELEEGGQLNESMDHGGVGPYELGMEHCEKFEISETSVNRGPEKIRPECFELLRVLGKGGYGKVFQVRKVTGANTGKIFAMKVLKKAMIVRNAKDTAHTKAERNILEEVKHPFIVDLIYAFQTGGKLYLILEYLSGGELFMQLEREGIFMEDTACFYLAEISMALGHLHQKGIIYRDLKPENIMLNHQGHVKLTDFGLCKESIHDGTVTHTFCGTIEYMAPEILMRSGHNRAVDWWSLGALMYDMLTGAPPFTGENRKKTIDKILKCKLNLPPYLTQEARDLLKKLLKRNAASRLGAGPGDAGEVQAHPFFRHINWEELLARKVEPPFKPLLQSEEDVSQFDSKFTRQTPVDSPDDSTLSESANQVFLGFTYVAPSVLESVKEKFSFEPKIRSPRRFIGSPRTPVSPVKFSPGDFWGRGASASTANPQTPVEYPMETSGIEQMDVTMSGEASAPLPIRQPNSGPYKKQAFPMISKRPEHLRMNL

For `Nc1cc(C(F)(F)F)c(-c2cc(N3CCOCC3)nc(N3CCOCC3)n2)cn1` [BKM120], in [1], the “phosphorylation of PRAS40 (Thr246) and NDRG1 (Thr346)” value is recorded as “markedly suppressed”.
Consider `C[C@@H]1COCCN1c1cc(=O)n2c(n1)N(Cc1cncc(Cl)c1)[C@H](C(F)(F)F)CC2` [SAR405], for which, in the assay with ZR-75-1 cells, the “Akt phosphorylation and PRAS40 phosphorylation” value is “neither compound suppressed”. Also, the “concentration reducing NDRG1 phosphorylation to basal levels” value in [1] is 0.3 µM. Also, on SGK3 [2], the “elevated SGK3 kinase activity, T-loop and hydrophobic motif phosphorylation induced by prolonged Class I PI3K or Akt inhibitor treatment” value was “suppressed”; the “basal SGK3 activity and phosphorylation” value is “to below control levels”.
Broadly, the IC50 is the concentration needed to halve the response being measured. With `Nc1[nH]nc2nc(-c3ccc(NS(=O)(=O)c4cc(Cl)ccc4F)cc3)cnc12` [14n], the IC50 on S6K1 is 76 nM; on SGK3 [3], 13 nM; on MLK1, 169 nM; on PKBa it was more than 10000 nM; at MLK3, 94 nM.
Take `CCc1c(C(=O)NNC(=O)C(O)c2cc(F)cc(F)c2)ccc(O)c1C` (stereo not shown) [EMD638683]: the “dose required to observe marginal reduction in NDRG1 phosphorylation” value in assay [4] was 100 µM.
On to `CO[C@H]1C[C@@H]2CC[C@@H](C)[C@@](O)(O2)C(=O)C(=O)N2CCCC[C@H]2C(=O)O[C@H]([C@H](C)C[C@@H]2CC[C@@H](O)[C@H](OC)C2)CC(=O)[C@H](C)/C=C(\C)[C@@H](O)[C@@H](OC)C(=O)[C@H](C)C[C@H](C)/C=C/C=C/C=C/1C` [rapamycin], for which, at SGK3 [2], the “SGK3 hydrophobic motif and T-loop phosphorylation and SGK3 kinase activity” value is “had no effect”.
On to `COc1ccc(-c2ccc3c(N4CCOC[C@@H]4C)nc(N4CCOC[C@@H]4C)nc3n2)cc1CO` [AZD8055], for which, on SGK3 [2], the “SGK3 hydrophobic motif and T-loop phosphorylation and SGK3 kinase activity” value is “suppressed”.
Consider `CS(=O)(=O)N1CCN(Cc2cc3nc(-c4cccc5[nH]ncc45)nc(N4CCOCC4)c3s2)CC1` [GDC0941], for which the “phosphorylation of PRAS40 (Thr246) and NDRG1 (Thr346)” value in assay [1] is recorded as “markedly suppressed”.
With `CC(C)(O)CNc1ncc(-c2ccnc(Nc3ccnc(Cl)c3)n2)c(CC2CC2)n1` [VPS34-IN1], the “TSC2 or mTORC1 substrate phosphorylation” value in the assay on ZR-75-1 cells (ZR-75-1, 1 μM VPS34-IN1 alone, 1 h) is reported as “did not have an effect”. In addition, the “Akt phosphorylation and PRAS40 phosphorylation” value in the assay with ZR-75-1 cells is recorded as “neither compound suppressed”. The “concentration reducing NDRG1 phosphorylation to basal levels” value in assay [1] amounted to 1 µM. Besides, at SGK3 [2], the “elevated SGK3 kinase activity, T-loop and hydrophobic motif phosphorylation induced by prolonged Class I PI3K or Akt inhibitor treatment” value is “suppressed”; the “basal SGK3 activity and phosphorylation” value is “to below control levels”.

The values are drawn from article PMC5007552, “The hVps34‐SGK3 pathway alleviates sustained PI3K/Akt inhibition by stimulating mTORC1 and tumour growth” (The EMBO Journal, 2016).
